Entries after “also recorded” stand apart in the source; their conditions may differ.
Assays:
T. cruzi epimastigotes [1] = assay: Alamar Blue viability assay of T. cruzi epimastigotes; format: cell-based, Trypanosoma cruzi (Y strain); settings: Trypanosoma cruzi, 72 h, epimastigotes incubated 3 days with compound; for EC50: concentration inhibiting 50% of multiplication; for EC90: concentration inhibiting 90% of multiplication
Procedure: T. cruzi epimastigotes were incubated in culture medium for three days with 25 different compounds at 10 µM.
T. cruzi epimastigotes at 1 × 10^7/mL in 50 µL were incubated in 96-wells plates with the same volume of compounds pre-diluted in 50 µL of LIT medium for 48 hours at 28 °C. LLC-MK2 cells (3 × 10^3) in 100 µL of medium were added to 96 well plates. After 5 hours, the medium was replaced by fresh medium containing serial dilutions of test compounds and incubations proceeded for 72 hours at 37 °C. In both cases, 10 µL of AlamarBlue (Thermo Fisher Scientific) was added and the plates were further incubated for 18 hours at 28 °C for epimastigotes and 4 hours at 37 °C for mammalian cells. Absorbance at 570 nm and 600 nm were measured by using a SpectraMax M3 (Molecular Devices). The differences between absorbance at 570 nm and 600 nm for each well was normalized against a blank value for medium without parasites and lysed cells. Alternatively, L6 rat myoblast cell death and lysis were determined using the cytotoxicity Detection Kit Plus LDH Version 6 (Roche) after 72 hours incubation with the indicated compounds using the manufacturer protocol. […] Each compound was tested in triplicates in at least two independent experiments, with exceptions appointed on Table 1. Selective index was estimated by the ratio between LLC-MK2 EC50 and epimastigotes EC50 on Table 1.

T. cruzi epimastigotes [2] = assay: T. cruzi epimastigote multiplication in culture (parasite counting); format: cell-based, Trypanosoma cruzi (Y strain)
[3] = test system: T. brucei procyclic form (PCF); assay: T. brucei procyclic form multiplication (parasite counting); format: cell-based, Trypanosoma brucei; settings: 48 hours at 28 °C, Fig. 1B
heme regulated kinase = test system: heme regulated kinase; design: method as in PMID 21765405; settings: cited from earlier work
mammalian eIF2α kinases = test system: mammalian eIF2α kinases; design: method as in PMID 21765405, PMID 28590739; settings: cited from earlier work

| SMILES | EC50 (T. cruzi epimastigotes [1]) [µM] | EC90 (T. cruzi epimastigotes [1]) [µM] | effect on T. cruzi epimastigote multiplication at 10 µM (T. cruzi epimastigotes [2]; 10 µM, three days in culture medium) | inhibition of epimastigote multiplication (counting) (T. cruzi epimastigotes [2]; all tested concentrations, 48 hours, Fig. 1A) | multiplication of T. brucei PCF [3] | activity on heme regulated kinase leading to eIF2α phosphorylation (heme regulated kinase) | activation of mammalian eIF2α kinases (mammalian eIF2α kinases) |
| --- | --- | --- | --- | --- | --- | --- | --- |
| O=C(Cn1ccnc1[N+](=O)[O-])NCc1ccccc1 [BZN, Benznidazole] | 211 ± 3 | 960 ± 25 |  |  |  |  |  |
| O=C(Nc1ccc(Cl)c(Cl)c1)Nc1cc([N+](=O)[O-])ccc1Cl [NCPdCPU, 1-(2-chloro-5-nitrophenyl)-3-(3,4-dichlorophenyl) urea] | > 10 | > 10 | unable to produce any visible effect; also recorded: no activity | minimal inhibition | not | inactive | failed to activate |
| O=C(Nc1ccc(Cl)c(Cl)c1)Nc1ccc2nnsc2c1 [BTdCPU, 1-(benzo [d][1,2,3]thiadiazol-6-yl)-3-(3,4-dichlorophenyl) urea] |  |  |  |  |  | activator |  |

— publication PMC5861040, “Identification of di-substituted ureas that prevent growth of trypanosomes through inhibition of translation initiation” (Scientific Reports, 2018)
